Literature values in patent US20190381137A1, “BOLAAMPHIPHILIC COMPOUNDS, COMPOSITIONS AND USES THEREOF” (Lauren Sciences LLC, priority 2012, published 2019).

Details: conjugate acid (protonated form) of the imidazole side chain

N[C@@H](Cc1c[nH]cn1)C(=O)O [histidine]
pKa: approximately 6.0
